Laboratory results taken from patent US9932637B2, “Genetic polymorphisms associated with cardiovascular disorders and drug response, methods of detection and uses thereof” (CELERA CORPORATION, priority 2003, dated 2018).
“And” between values parts separate entries of the source, which are not always exact repeats. Identical values can stand only once.

System: patients with prior myocardial infarction (CARE study)
Assay: CARE aligned analysis (prospective and case/control design, white males): association of genotypes with pravastatin efficacy (Tables 13, 15)
Assay type: in vivo, human
Description: The data presented in Table 8 based on an association of genotypes with pravastatin efficacy of the CARE samples were further analyzed and presented in Table 13. The further analysis was performed to align the data obtained from the analysis of the CARE samples, which was a prospective study, to the analysis of the WOSCOP samples, which was a case/control study. Table 13 also presents an analysis of the association of genotypes with pravastatin efficacy in the WOSCOPs samples. Relative to the analysis performed on the data presented in Table 8, there are two significant differences to determine if the SNP influenced pravastatin efficacy. Data obtained from the CARE samples were separated by study design into two groups, those in the prospective study design group and those in the case/control study design group. The original care study contained 16 protocol defined cardiovascular disease defined endpoints and 150 other phenotypes. […] The control groups used to compare the data were also divided into two groups, the “all possible” control group and the “cleaner” control group. […] Because the participants in the WOSCOPs trial were all white males, only data obtained from white males in the CARE study were analysed. Data from the “all possible” and “cleaner” controls were compared to data obtained from the cases in the prospective study design while only data from “cleaner” controls were compared to cases in the case/control study design. The data from the case/control cohorts were analysed using conditional logistic regression (as opposed to logistic regression used for the original anaylsis).
The anaylsis was refined as described for both Tables 13 and 14.

[1] = CD6 hCV2553030, CARE, Case/Control, F MI/SD/NF MI
[2] = CD6 hCV2553030, CARE, Prospective, F MI/SD/NF MI
[3] = CD6 hCV25922320, CARE, Case/Control, F MI/SD/NF MI
[4] = CD6 hCV25922320, CARE, Case/Control, F MI/SD/NF MI, listed as Pravastatin
[5] = CD6 hCV25922320, CARE, Prospective, F MI/SD/NF MI
[6] = CD163 hCV25591528, CARE Case/Control, F&NF MI
[7] = CD163 hCV25591528, CARE Prospective, F&NF MI, listed as Pravastatin
[8] = CD163 hCV25591528, CARE, Case/Control, F MI/SD/NF MI, listed as Pravastatin
[9] = CD163 hCV25591528, CARE, Prospective, F MI/SD/NF MI
[10] = COL2A1 hCV3276198, CARE Case/Control, F&NF MI
[11] = COL11A1 hCV8400671, CARE Case/Control, F&NF MI
[12] = CR1 hCV25598594, CARE Case/Control, F&NF MI
[13] = CR1 hCV25598594, CARE Prospective, F&NF MI
[14] = CR1 hCV25598594, CARE, Case/Control, F MI/SD/NF MI
[15] = CR1 hCV25598594, CARE, Prospective, F MI/SD/NF MI
[16] = CXCL16 hCV8718197, CARE Prospective, F&NF MI
[17] = CXCL16 hCV8718197, CARE, Case/Control, F MI/SD/NF MI
[18] = CXCL16 hCV8718197, CARE, Prospective, F MI/SD/NF MI
[19] = CYBA hCV2038, CARE Case/Control, F&NF MI
[20] = ELN hCV1253630, CARE, Case/Control, F MI/SD/NF MI
[21] = ELN hCV1253630, CARE, Prospective, F MI/SD/NF MI
[22] = F7 hCV783138, CARE Case/Control, F&NF MI

Structure (SMILES): CC[C@H](C)C(=O)O[C@H]1C[C@H](O)C=C2C=C[C@H](C)[C@H](CC[C@@H](O)C[C@@H](O)CC(=O)O)[C@H]21 [pravastatin]
- Pravastatin vs placebo odds ratio, 2 rare alleles (CAPN10 hCV25614016, CARE, Prospective, F MI/SD/NF MI): 0.90 and 0.78
- OR of fatal MI/sudden death/non-fatal MI in the presence of statin treatment (CARE, hCV2442143, 0 rare alleles): 0.42
- OR of fatal MI/sudden death/non-fatal MI in the presence of statin treatment (CARE, hCV2442143, one rare allele, not statistically significant): 0.78
- OR of fatal MI/sudden death/non-fatal MI in the presence of statin treatment (CARE, hCV2442143, two rare alleles, not statistically significant): 1.16
- 2 Rare Alleles n/total, Pravastatin Patients (CD6 hCV2553030, CARE Case/Control, F&NF MI): 2/91 and 2/63
- 2 Rare Alleles n/total, Pravastatin Patients (CD6 hCV2553030, CARE Prospective, F&NF MI): 2/92 and 2/64
- Pravastatin vs placebo odds ratio, 0 rare alleles [1]: 0.97 and 0.92
- Pravastatin vs placebo odds ratio, 1 rare allele [1]: 0.80 and 0.68
- Pravastatin vs placebo odds ratio, 2 rare alleles [1]: 0.06 and 0.04
- Pravastatin vs placebo odds ratio, 0 rare alleles [2]: 0.97 and 0.88
- Pravastatin vs placebo odds ratio, 1 rare allele [2]: 0.81 and 0.72
- Pravastatin vs placebo odds ratio, 2 rare alleles [2]: 0.06 and 0.04
- 2 rare alleles n/total (%), pravastatin patients [3]: (17.9%)
- Pravastatin vs placebo odds ratio, 2 rare alleles [3]: 1.44
- Pravastatin vs placebo odds ratio, 0 rare alleles [4]: 0.57 and 0.49
- Pravastatin vs placebo odds ratio, 1 rare allele [4]: 1.39 and 1.36
- Pravastatin vs placebo odds ratio, 2 rare alleles [4]: 1.09
- 2 rare alleles n/total (%), pravastatin patients [5]: (17.9%)
- Pravastatin vs placebo odds ratio, 0 rare alleles [5]: 0.58 and 0.51
- Pravastatin vs placebo odds ratio, 1 rare allele [5]: 1.39 and 1.27
- Pravastatin vs placebo odds ratio, 2 rare alleles [5]: 1.09 and 1.17
- 2 Rare Alleles n/total, Pravastatin Patients [6]: 4/24 and 4/21
- Pravastatin vs placebo odds ratio, 2 rare alleles [6]: 1.23 and 0.64
- Pravastatin vs placebo odds ratio, 2 rare alleles (CD163 hCV25591528, CARE Prospective, F&NF MI): 0.59
- 2 Rare Alleles n/total, Pravastatin Patients [7]: 4/25 and 4/21
- Pravastatin vs placebo odds ratio, 2 rare alleles [7]: 1.14
- Pravastatin vs placebo odds ratio, 2 rare alleles (CD163 hCV25591528, CARE, Case/Control, F MI/SD/NF MI): 0.99
- Pravastatin vs placebo odds ratio, 0 rare alleles [8]: 0.96 and 0.88
- Pravastatin vs placebo odds ratio, 1 rare allele [8]: 0.29 and 0.27
- Pravastatin vs placebo odds ratio, 2 rare alleles [8]: 1.97
- Pravastatin vs placebo odds ratio, 0 rare alleles [9]: 0.97 and 0.86
- Pravastatin vs placebo odds ratio, 1 rare allele [9]: 0.30 and 0.28
- Pravastatin vs placebo odds ratio, 2 rare alleles [9]: 0.88
- 2 Rare Alleles (%), Pravastatin Patients [10]: (35.0%)
- 2 Rare Alleles n/total, Pravastatin Patients [10]: 7/20
- 2 Rare Alleles (%), Pravastatin Patients [11]: (1.9%)
- 2 Rare Alleles n/total, Pravastatin Patients [11]: 1/52
- 2 Rare Alleles (%), Pravastatin Patients [12]: (0.0%)
- 2 Rare Alleles n/total, Pravastatin Patients [12]: 0/0
- 2 Rare Alleles (%), Pravastatin Patients [13]: (0.0%)
- 2 Rare Alleles n/total, Pravastatin Patients [13]: 0/0
- Pravastatin vs placebo odds ratio, 0 rare alleles [14]: 0.86 and 0.78
- Pravastatin vs placebo odds ratio, 1 rare allele [14]: 0.09 and 0.07
- Pravastatin vs placebo odds ratio, 0 rare alleles [15]: 0.87 and 0.78
- Pravastatin vs placebo odds ratio, 1 rare allele [15]: 0.08 and 0.06
- 2 Rare Alleles n/total, Pravastatin Patients (CXCL16 hCV8718197, CARE Case/Control, F&NF MI): 32/233 and 32/160
- 2 Rare Alleles (%), Pravastatin Patients [16]: (19.8%)
- 2 Rare Alleles n/total, Pravastatin Patients [16]: 32/237 and 32/162
- 2 rare alleles n/total (%), pravastatin patients [17]: (17.4%)
- Pravastatin vs placebo odds ratio, 0 rare alleles [17]: 0.38
- Pravastatin vs placebo odds ratio, 1 rare allele [17]: 0.91
- Pravastatin vs placebo odds ratio, 2 rare alleles [17]: 1.12
- 2 rare alleles n/total (%), pravastatin patients [18]: (17.2%)
- Pravastatin vs placebo odds ratio, 0 rare alleles [18]: 0.38
- Pravastatin vs placebo odds ratio, 1 rare allele [18]: 0.92
- Pravastatin vs placebo odds ratio, 2 rare alleles [18]: 1.06
- 2 Rare Alleles (%), Pravastatin Patients [19]: (16.9%)
- 2 Rare Alleles n/total, Pravastatin Patients [19]: 23/136
- 2 rare alleles n/total (%), pravastatin patients [20]: (18.3%)
- Pravastatin vs placebo odds ratio, 0 rare alleles [20]: 0.53
- Pravastatin vs placebo odds ratio, 1 rare allele [20]: 0.70
- Pravastatin vs placebo odds ratio, 2 rare alleles [20]: 1.64
- 2 rare alleles n/total (%), pravastatin patients [21]: (18.2%)
- Pravastatin vs placebo odds ratio, 0 rare alleles [21]: 0.52
- Pravastatin vs placebo odds ratio, 1 rare allele [21]: 0.71
- Pravastatin vs placebo odds ratio, 2 rare alleles [21]: 1.60
- 2 Rare Alleles n/total, Pravastatin Patients (ELN hCV1253830, CARE Case/Control, F&NF MI): 28/204 and 28/133
- 2 Rare Alleles n/total, Pravastatin Patients (ELN hCV1253830, CARE Prospective, F&NF MI): 28/208 and 28/136
- 2 Rare Alleles (%), Pravastatin Patients [22]: (7.7%)
- 2 Rare Alleles n/total, Pravastatin Patients [22]: 1/13 and 1/9
- 2 Rare Alleles (%), Pravastatin Patients (F7 hCV783138, CARE Prospective, F&NF MI): (7.7%)
